target: DNA-dependent protein kinase catalytic subunit (Homo sapiens, UniProt P78527); test: DNA-PK Enzyme-Linked Immunosorbent Assay
Protocol: On day one, coat 96-well plate (ThermoFisher. Cat #: 442404) with GST-p53 (1-101) peptide (purified by Pharmaron, BCS department) by diluting 3 μg of GST-p53 each well with 0.1 M Na2CO3/NaHCO3, pH 9.6. Incubate the plate overnight at 4° C. The second day, remove coating buffer, wash 2× with PBST (1×PBS containing 0.1% Tween-20). Then add DNA-PK enzyme solution (Invitrogen, #PR9107A; the final DNA-PK concentration is 0.1 μg/mL), series dilution compounds (the final top concentration is 100 nM, 3 fold series dilution, with total 10 doses) and ATP solution (the final ATP concentration is 20 μM) to the 96-well plate. Incubate the plate at 25° C. for 1 hour. Then wash 3× with PBST (1×PBS containing 0.1% Tween-20). Block the plate with PBST+ 1% BSA at 4° C. overnight. The third day, wash 4× with PBST (1×PBS containing 0.1% Tween-20). Then add Phospho-p53 primary antibody (cell signaling Technology, #9286, Phospho-p53 (Ser15) (16G8) Mouse mAb) (1/1000) to each well. Seal with plate and incubate the plate for 1 h at 37° C. Wash 4× with PBST (1×PBS containing 0.1% Tween-20), add 100 μL of HRP-linked secondary antibody (Cell signaling Technology, #7076, Anti-mouse IgG, HRP-linked Antibody) (1/1000) to each well. Seal with tape and incubate the plate for 30 min at 37° C. Wash 4× with PBST (1×PBS containing 0.1% Tween-20), add 100 μL of TMB (Cell signaling Technology, #7004) substrate to each well. Seal with tape and incubate the plate for 10 min at 37° C. Then add 100 μL of Stop solution (Cell signaling Technology, #7002) to each well. Read the plate at 450 nm to detect absorption.

DNA-dependent protein kinase catalytic subunit, sequence (P78527 whole entry): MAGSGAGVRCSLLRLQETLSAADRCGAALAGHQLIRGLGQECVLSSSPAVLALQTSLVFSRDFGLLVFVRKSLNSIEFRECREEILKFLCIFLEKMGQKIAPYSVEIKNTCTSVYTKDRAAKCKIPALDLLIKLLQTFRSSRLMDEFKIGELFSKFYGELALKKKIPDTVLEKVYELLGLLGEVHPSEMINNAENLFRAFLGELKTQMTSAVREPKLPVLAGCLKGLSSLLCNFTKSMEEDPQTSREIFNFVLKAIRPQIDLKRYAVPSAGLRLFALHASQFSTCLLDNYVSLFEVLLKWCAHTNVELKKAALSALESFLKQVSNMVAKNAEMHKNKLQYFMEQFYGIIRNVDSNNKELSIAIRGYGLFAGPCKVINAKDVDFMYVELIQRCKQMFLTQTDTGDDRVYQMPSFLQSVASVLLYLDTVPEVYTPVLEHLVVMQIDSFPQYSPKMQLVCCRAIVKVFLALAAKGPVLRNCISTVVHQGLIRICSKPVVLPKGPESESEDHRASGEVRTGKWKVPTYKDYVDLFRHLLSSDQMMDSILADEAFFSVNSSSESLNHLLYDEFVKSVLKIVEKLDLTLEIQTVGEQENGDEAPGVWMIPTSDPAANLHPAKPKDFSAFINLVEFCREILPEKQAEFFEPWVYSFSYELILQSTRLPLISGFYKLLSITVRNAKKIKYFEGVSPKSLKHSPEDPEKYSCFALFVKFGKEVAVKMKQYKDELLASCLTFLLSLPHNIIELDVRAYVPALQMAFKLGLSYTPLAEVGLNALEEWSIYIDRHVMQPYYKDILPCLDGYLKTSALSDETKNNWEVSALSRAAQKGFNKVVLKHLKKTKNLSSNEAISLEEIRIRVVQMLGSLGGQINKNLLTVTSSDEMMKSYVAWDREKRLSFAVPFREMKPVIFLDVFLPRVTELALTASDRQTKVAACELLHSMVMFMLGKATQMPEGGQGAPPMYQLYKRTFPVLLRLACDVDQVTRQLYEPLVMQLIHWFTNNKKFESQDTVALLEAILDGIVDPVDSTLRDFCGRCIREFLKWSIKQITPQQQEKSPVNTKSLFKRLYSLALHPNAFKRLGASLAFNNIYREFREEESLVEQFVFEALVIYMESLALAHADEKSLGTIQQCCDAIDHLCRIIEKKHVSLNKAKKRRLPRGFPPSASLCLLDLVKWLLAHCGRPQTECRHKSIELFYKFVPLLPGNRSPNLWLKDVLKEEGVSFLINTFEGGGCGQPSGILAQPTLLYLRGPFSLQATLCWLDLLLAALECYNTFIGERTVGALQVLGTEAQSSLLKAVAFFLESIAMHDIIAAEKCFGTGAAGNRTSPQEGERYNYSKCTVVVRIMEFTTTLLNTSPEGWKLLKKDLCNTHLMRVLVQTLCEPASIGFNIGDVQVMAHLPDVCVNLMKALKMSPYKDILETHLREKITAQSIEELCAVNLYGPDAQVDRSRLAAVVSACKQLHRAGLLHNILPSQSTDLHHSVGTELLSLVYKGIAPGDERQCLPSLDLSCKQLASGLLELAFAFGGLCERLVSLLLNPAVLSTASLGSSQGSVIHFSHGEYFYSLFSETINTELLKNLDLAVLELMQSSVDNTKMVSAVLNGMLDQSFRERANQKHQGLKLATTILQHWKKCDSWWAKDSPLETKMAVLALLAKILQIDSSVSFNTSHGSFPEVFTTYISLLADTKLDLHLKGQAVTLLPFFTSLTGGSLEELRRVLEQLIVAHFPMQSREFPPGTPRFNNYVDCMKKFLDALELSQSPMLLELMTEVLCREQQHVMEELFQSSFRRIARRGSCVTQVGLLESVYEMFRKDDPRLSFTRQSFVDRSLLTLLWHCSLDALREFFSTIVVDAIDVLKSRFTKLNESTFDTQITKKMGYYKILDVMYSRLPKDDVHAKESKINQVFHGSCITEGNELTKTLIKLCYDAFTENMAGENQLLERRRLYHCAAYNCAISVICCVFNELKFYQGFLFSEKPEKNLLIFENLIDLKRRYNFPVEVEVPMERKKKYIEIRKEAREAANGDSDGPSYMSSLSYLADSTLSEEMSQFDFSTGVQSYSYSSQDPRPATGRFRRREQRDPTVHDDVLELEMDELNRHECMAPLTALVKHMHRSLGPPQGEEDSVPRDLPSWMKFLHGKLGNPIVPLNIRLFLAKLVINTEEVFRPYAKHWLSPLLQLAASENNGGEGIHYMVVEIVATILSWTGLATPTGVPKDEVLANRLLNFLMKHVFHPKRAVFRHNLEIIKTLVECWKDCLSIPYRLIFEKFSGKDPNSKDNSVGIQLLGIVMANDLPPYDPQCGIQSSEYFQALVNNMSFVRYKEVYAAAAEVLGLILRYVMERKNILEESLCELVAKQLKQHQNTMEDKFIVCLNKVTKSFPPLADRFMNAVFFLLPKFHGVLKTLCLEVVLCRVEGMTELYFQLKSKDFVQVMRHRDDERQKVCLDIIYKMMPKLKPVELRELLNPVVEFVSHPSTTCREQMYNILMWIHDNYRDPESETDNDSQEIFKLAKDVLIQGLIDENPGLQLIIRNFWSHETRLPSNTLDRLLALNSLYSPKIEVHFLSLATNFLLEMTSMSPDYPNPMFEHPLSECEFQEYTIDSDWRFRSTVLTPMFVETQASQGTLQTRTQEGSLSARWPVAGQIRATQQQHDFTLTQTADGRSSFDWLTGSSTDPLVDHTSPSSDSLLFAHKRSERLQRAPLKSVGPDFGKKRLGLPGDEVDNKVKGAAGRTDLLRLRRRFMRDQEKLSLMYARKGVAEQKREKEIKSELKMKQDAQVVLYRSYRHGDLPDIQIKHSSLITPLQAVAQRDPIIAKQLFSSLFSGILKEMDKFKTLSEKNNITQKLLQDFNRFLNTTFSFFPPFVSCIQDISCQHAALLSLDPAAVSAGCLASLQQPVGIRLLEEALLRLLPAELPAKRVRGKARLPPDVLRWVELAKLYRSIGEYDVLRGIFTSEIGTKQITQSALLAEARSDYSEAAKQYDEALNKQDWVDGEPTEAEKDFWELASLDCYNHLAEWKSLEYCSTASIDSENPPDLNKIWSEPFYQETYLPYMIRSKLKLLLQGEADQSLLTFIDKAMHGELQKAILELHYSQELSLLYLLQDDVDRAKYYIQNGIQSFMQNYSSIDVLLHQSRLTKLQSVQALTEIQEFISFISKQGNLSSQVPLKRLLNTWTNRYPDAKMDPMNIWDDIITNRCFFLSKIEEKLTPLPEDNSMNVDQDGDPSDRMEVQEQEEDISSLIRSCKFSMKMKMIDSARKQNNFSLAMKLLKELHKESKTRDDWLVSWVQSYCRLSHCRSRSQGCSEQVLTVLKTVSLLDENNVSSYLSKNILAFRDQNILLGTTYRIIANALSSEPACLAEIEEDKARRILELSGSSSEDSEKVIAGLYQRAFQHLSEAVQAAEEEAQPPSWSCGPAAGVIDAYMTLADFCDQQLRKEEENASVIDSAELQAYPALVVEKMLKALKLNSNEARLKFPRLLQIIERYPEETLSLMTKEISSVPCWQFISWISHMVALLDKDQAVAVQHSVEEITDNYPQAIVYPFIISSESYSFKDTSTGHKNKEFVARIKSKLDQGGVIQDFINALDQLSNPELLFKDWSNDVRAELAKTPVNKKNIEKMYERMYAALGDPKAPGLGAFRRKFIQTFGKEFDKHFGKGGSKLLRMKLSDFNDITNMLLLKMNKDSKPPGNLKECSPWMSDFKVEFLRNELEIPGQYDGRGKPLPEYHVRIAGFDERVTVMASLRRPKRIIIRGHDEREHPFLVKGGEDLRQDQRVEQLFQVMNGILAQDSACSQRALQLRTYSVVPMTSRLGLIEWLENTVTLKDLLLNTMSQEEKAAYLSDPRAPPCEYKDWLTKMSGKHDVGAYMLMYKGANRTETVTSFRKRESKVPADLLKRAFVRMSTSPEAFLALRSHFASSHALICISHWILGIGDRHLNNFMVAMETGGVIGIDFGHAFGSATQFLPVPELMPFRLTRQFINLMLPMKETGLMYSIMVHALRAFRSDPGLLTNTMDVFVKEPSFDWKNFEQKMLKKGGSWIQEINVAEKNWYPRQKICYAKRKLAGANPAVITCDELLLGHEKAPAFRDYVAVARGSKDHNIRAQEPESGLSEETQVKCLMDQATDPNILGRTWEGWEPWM

Row | IC50 | SMILES
1 | < 0.5 nM | COc1ncc(-c2ccc3ncc4c(c3c2)C2(CC2)C(=O)N4C)cc1NS(=O)(=O)c1cccc(C(C)O)c1 (configuration not stated) [US12187742, Example 18]
2 | < 0.5 nM | CN1C(=O)C2(CC2)c2c1cnc1ccc(-c3cnc(OCCCN4CCCC4)c(NS(=O)(=O)C4CC4)c3)cc21 [US12187742, Example 60]
3 | < 0.5 nM | CN(C)CCCOc1ncc(-c2ccc3ncc4c(c3c2)C2(CC2)C(=O)N4C)cc1NS(=O)(=O)c1cccnc1 [US12187742, Example 85]
4 | < 0.5 nM | CN(C)CCCOc1ncc(-c2ccc3ncc4c(c3c2)C2(CC2)C(=O)N4C)cc1NS(=O)(=O)c1ccc(C(F)(F)F)cc1 [US12187742, Example 108]
5 | < 0.5 nM | CN(C)CCCOc1ncc(-c2ccc3ncc4c(c3c2)C2(CC2)C(=O)N4C)cc1NS(=O)(=O)c1cccs1 [US12187742, Example 120]
6 | < 0.5 nM | CN1CC=C(c2ncc(-c3ccc4ncc5c(c4c3)C3(CCC3)C(=O)N5C)cc2NS(C)(=O)=O)CC1 [US12187742, Example 276]
7 | < 0.5 nM | CC(C)NCCOc1ncc(-c2ccc3ncc4c(c3c2F)C2(CCC2)C(=O)N4C)cc1NS(C)(=O)=O [US12187742, Example 556]
